Target: T1, Human M4 (Homo sapiens, UniProt P08173)
T1 construct: Human or rat M4 cDNA, along with the chimeric G protein Gq,5, were transfected into Chinese hamster ovary (CHO-K1) cells; expressed in transfected cells; host or cells: CHO-K1 (M4/Gqi5/CHO)
T1 sequence (P08173 1-479): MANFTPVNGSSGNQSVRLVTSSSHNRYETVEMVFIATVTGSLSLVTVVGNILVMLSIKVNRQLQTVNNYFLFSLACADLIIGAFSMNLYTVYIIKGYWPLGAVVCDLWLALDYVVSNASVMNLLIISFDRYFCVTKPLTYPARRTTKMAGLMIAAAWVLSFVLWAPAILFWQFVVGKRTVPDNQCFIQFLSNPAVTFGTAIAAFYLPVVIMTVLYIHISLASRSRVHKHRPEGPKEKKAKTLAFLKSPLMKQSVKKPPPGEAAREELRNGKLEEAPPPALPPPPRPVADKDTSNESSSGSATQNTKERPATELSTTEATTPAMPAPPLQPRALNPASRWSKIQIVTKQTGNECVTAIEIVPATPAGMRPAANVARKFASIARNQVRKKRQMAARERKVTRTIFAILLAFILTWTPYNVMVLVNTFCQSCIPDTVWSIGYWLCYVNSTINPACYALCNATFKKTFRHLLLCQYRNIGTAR
Assay: mAChR M4 cell-based functional assay (calcium flux, decrease of EC80 acetylcholine response)
Details: for Human M4 Emin: % ACh maximum at 30 μM; for IC50: CHO-K1 cells with human M4 and Gqi5, EC80 acetylcholine
How it was run: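 CHO-K1 cells stably co-expressing M4 with chimeric Gqi5, loaded with Fluo-4 AM for 50 min at 37 °C; compounds added as 10-point 1:3 curves, then acetylcholine at EC20 (143 s) and EC80 (268 s). Calcium read by FDSS fluorescence ratio; IC50 from four-parameter fit of decrease in EC80 acetylcholine response.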

Human M4 Emin [%]	IC50 [µM]	SMILES
4	0.17	Fc1ccc(OCCN2C[C@H]3C[C@H](Nc4ccc(-c5cc(F)cc(F)c5F)nn4)C[C@H]3C2)cc1 [Compound 58, (3aR,5s,6aS)-2-(2-(4-fluorophenoxy)ethyl)-N-(6-(2,3,5-trifluorophenyl)pyridazin-3-yl)octahydrocyclopenta[c]pyrrol-5-amine]
3	0.0057	Fc1cc(F)c(F)c(-c2ccc(N[C@H]3C[C@@H]4CN(CC5CCCOC5)C[C@@H]4C3)nn2)c1 (single isomer, unassigned) [Compound 25]
2	0.0632	Fc1cc(F)c(F)c(-c2ccc(N[C@H]3C[C@@H]4CN(C[C@H]5CCOC5)C[C@@H]4C3)nn2)c1 [Compound 30, (3aR,5s,6aS)-2-(((R)-tetrahydrofuran-3-yl)methyl)-N-(6-(2,3,5-trifluorophenyl)pyridazin-3-yl)octahydrocyclopenta[c]pyrrol-5-amine]
5	0.0073	CC(C)C(O)CN1C[C@H]2C[C@H](Nc3ccc(-c4cc(F)cc(F)c4F)nn3)C[C@H]2C1 (stereo partly drawn) [Compound 64, 3-methyl-1-((3aR,5s,6aS)-5-((6-(2,3,5-trifluorophenyl)pyridazin-3-yl)amino)hexahydrocyclopenta[c]pyrrol-2(1H)-yl)butan-2-ol]
1	0.141	[2H]C(C)(N1C[C@H]2C[C@H](Nc3ccc(-c4cc(F)cc(F)c4F)nn3)C[C@H]2C1)C1(C)CCOCC1 (stereo partly drawn) [Compound 45, (3aR,5s,6aS)-2-(1-(4-methyltetrahydro-2H-pyran-4-yl)ethyl-1-d)-N-(6-(2,3,5-trifluorophenyl)pyridazin-3-yl)octahydrocyclopenta[c]pyrrol-5-amine]
3	0.0396	[2H]C([2H])(N1C[C@H]2C[C@H](Nc3ccc(-c4cc(F)cc(F)c4F)nn3)C[C@H]2C1)C1(CC)CCOCC1 [Compound 33, (3aR,5s,6aS)-2-((4-ethyltetrahydro-2H-pyran-4-yl)methyl-d2)-N-(6-(2,3,5-trifluorophenyl)pyridazin-3-yl)octahydrocyclopenta[c]pyrrol-5-amine]
3	0.00048	Fc1cc(F)c(F)c(-c2ccc(N[C@H]3C[C@@H]4CN(C[C@@H]5CC6CCC5O6)C[C@@H]4C3)nn2)c1 (stereo partly drawn) [Compound 32, (3aR,5s,6aS)-2-(((2S)-7-oxabicyclo[2.2.1]heptan-2-yl)methyl)-N-(6-(2,3,5-trifluorophenyl)pyridazin-3-yl)octahydrocyclopenta[c]pyrrol-5-amine]
17	0.0012	C[C@]12C[C@H](Nc3ccc(-c4cc(F)cc(F)c4F)nn3)C[C@H]1CN(CC1CCOCC1)C2 (racemic) [Compound 88, (3aR,5S,6aS)-3a-methyl-2-((tetrahydro-2H-pyran-4-yl)methyl)-N-(6-(2,3,5-trifluorophenyl)pyridazin-3-yl)octahydrocyclopenta[c]pyrrol-5-amine and (3aS,5R,6aR)-3a-methyl-2-((tetrahydro-2H-pyran-4-yl)methyl)-N-(6-(2,3,5-trifluorophenyl)pyridazin-3-yl)octahydrocyclopenta[c]pyrrol-5-amine]
3	0.00124	Fc1cc(F)c(F)c(-c2ccc(N[C@H]3C[C@@H]4CN(CC5CCCCO5)C[C@@H]4C3)nn2)c1 (single isomer, unassigned) [Compound 26]
3	0.00463	CC1(CN2C[C@H]3C[C@H](Nc4ccc(-c5cc(F)cc(F)c5F)nn4)C[C@H]3C2)CCOCC1 [Compound 11, (3aR,5s,6aS)-2-((4-methyltetrahydro-2H-pyran-4-yl)methy)-N-(6-(2,3,5-trifluorophenyl)pyridazin-3-yl)octahydrocyclopenta[c]pyrrol-5-amine]
3	0.0135	Fc1cc(F)c(F)c(-c2ccc(N[C@H]3C[C@@H]4CN(C5CCC6(CCOCC6)CC5)C[C@@H]4C3)nn2)c1 [Compound 5, (3aR,5s,6aS)-2-(3-oxaspiro[5.5]undecan-9-yl)-N-(6-(2,3,5-trifluorophenyl)pyridazin-3-yl)octahydrocyclopenta[c]pyrrol-5-amine]
3	0.00148	[2H]C([2H])([C@H]1CCCCO1)N1C[C@H]2C[C@H](Nc3ccc(-c4cc(F)cc(F)c4F)nn3)C[C@H]2C1 [Compound 40, (3aR,5s,6aS)-2-(((R)-tetrahydro-2H-pyran-2-yl)methyl-d2)-N-(6-(2,3,5-trifluorophenyl)pyridazin-3-yl)octahydrocyclopenta[c]pyrrol-5-amine]
3	0.012	[2H]C([2H])([C@@H]1CCCOC1)N1C[C@H]2C[C@H](Nc3ccc(-c4cc(F)cc(F)c4F)nn3)C[C@H]2C1 [Compound 66, (3aR,5s,6aS)-2-(((S)-tetrahydro-2H-pyran-3-yl)methyl-d2)-N-(6-(2,3,5-trifluorophenyl)pyridazin-3-yl)octahydrocyclopenta[c]pyrrol-5-amine]
3	0.0039	[2H]C([2H])(C1CCOCC1(F)F)N1C[C@H]2C[C@H](Nc3ccc(-c4cc(F)cc(F)c4F)nn3)C[C@H]2C1 (stereo partly drawn) [Compound 93, (3aR,5s,6aS)-2-((3,3-difluorotetrahydro-2H-pyran-4-yl)methyl-d2)-N-(6-(2,3,5-trifluorophenyl)pyridazin-3-yl)octahydrocyclopenta[c]pyrrol-5-amine]
2	0.0952	[2H]C(C)(c1ccccn1)N1C[C@H]2C[C@H](Nc3ccc(-c4cc(F)cc(F)c4F)nn3)C[C@H]2C1 (stereo partly drawn) [Compound 15, (3aR,5s,6aS)-2-(1-(pyridin-2-yl)ethyl-1-d)-N-(6-(2,3,5-trifluorophenyl)pyridazin-3-yl)octahydrocyclopenta[c]pyrrol-5-amine]
3	0.798	Fc1cc(F)c(F)c(-c2ccc(N[C@H]3C[C@@H]4CN(C5CC6(COC6)C5)C[C@@H]4C3)nn2)c1 [Compound 35, (3aR,5s,6aS)-2-(2-oxaspiro[3.3]heptan-6-yl)-N-(6-(2,3,5-trifluorophenyl)pyridazin-3-yl)octahydrocyclopenta[c]pyrrol-5-amine]
6	0.35	OC1CCCCC1N1C[C@H]2C[C@H](Nc3ccc(-c4cc(F)cc(F)c4F)nn3)C[C@H]2C1 (stereo partly drawn) [Compound 65, 2-((3aR,5s,6aS)-5-((6-(2,3,5-trifluorophenyl)pyridazin-3-yl)amino)hexahydrocyclopenta[c]pyrrol-2(1H)-yl)cyclohexan-1-ol]
13	0.81	Fc1cc(F)c(F)c(-c2ccc(N[C@H]3C[C@@H]4CN(CCC(F)(F)F)C[C@@H]4C3)nn2)c1 [Compound 60, (3aR,5s,6aS)-N-(6-(2,3,5-trifluorophenyl)pyridazin-3-yl)-2-(3,3,3-trifluoropropyl)octahydrocyclopenta[c]pyrrol-5-amine]
3	0.078	OC1(CN2C[C@H]3C[C@H](Nc4ccc(-c5cc(F)cc(F)c5F)nn4)C[C@H]3C2)C2CC3CC(C2)CC1C3 (stereo partly drawn) [Compound 63, 2-(((3aR,5s,6aS)-5-((6-(2,3,5-trifluorophenyl)pyridazin-3-yl)amino)hexahydrocyclopenta[c]pyrrol-2(1H)-yl)methyl)adamantan-2-ol]
4	0.215	CC1(C)CC(N2C[C@H]3C[C@H](Nc4ccc(-c5cc(F)cc(F)c5F)nn4)C[C@H]3C2)CC(C)(C)O1 [Compound 7, (3aR,5s,6aS)-2-(2,2,6,6-tetramethyltetrahydro-2H-pyran-4-yl)-N-(6-(2,3,5-trifluorophenyl)pyridazin-3-yl)octahydrocyclopenta[c]pyrrol-5-amine]
3	0.0483	Fc1cc(F)c(F)c(-c2ccc(N[C@H]3C[C@@H]4CN(C[C@H]5COCCO5)C[C@@H]4C3)nn2)c1 [Compound 29, (3aR,5s,6aS)-2-(((S)-1,4-dioxan-2-yl)methyl)-N-(6-(2,3,5-trifluorophenyl)pyridazin-3-yl)octahydrocyclopenta[c]pyrrol-5-amine]
4	0.00069	Fc1cc(F)c(F)c(-c2ccc(N[C@H]3C[C@@H]4CN(C[C@@H]5COCCO5)C[C@@H]4C3)nn2)c1 [Compound 28, (3aR,5s,6aS)-2-(((R)-1,4-dioxan-2-yl)methyl)-N-(6-(2,3,5-trifluorophenyl)pyridazin-3-yl)octahydrocyclopenta[c]pyrrol-5-amine]
3	0.0646	[2H]C([2H])([C@H]1CCOC1)N1C[C@H]2C[C@H](Nc3ccc(-c4cc(F)cc(F)c4F)nn3)C[C@H]2C1 [Compound 41, (3aR,5s,6aS)-2-(((R)-tetrahydrofuran-3-yl)methyl-d2)-N-(6-(2,3,5-trifluorophenyl)pyridazin-3-yl)octahydrocyclopenta[c]pyrrol-5-amine]
